Several values for one entry are separate records, joined by “and”; a condition that tells them apart may be missing. Equal entries are not always repeated.
Assays:
[1] = Crystal, Calculated from knudsen effusion weight loss
[2] = molar enthalpy of vaporization or sublimation; settings: 298.15 K; Crystal; drop calorimetry

OC1c2ccccc2Oc2ccccc21 [9H-xanthen-9-ol]
[1]
Settings	vapor or sublimation pressure
333.18 K	6.91e-05 kPa and 5.67e-05 kPa and 6.28e-05 kPa
335.14 K	8.54e-05 kPa and 8.17e-05 kPa and 7.79e-05 kPa
337.08 K	0.0001045 kPa and 0.0001126 kPa and 0.0001038 kPa
339.18 K	0.0001355 kPa and 0.0001321 kPa and 0.000152 kPa
341.13 K	0.0001838 kPa and 0.0001813 kPa and 0.0001645 kPa
343.08 K	0.0002256 kPa and 0.0002318 kPa and 0.0002156 kPa
345.08 K	0.0002616 kPa and 0.0002749 kPa and 0.0002595 kPa
347.14 K	0.0003355 kPa and 0.0003321 kPa and 0.0003104 kPa
349.17 K	0.0004364 kPa and 0.0003742 kPa and 0.0003877 kPa
351.07 K	0.0005411 kPa and 0.0005557 kPa and 0.0005348 kPa
353.12 K	0.0006853 kPa and 0.0006411 kPa and 0.0006134 kPa
355.18 K	0.0008786 kPa and 0.0007534 kPa and 0.0007633 kPa

NC(=O)C1c2ccccc2Oc2ccccc21 [9H-xanthene-9-carboxamide]
[1]
Settings	vapor or sublimation pressure
399.14 K	0.0001229 kPa and 0.0001189 kPa and 0.000116 kPa
401.14 K	0.000154 kPa and 0.0001484 kPa and 0.000144 kPa
403.16 K	0.0001893 kPa and 0.0001856 kPa and 0.0001767 kPa
405.15 K	0.0002159 kPa and 0.0002174 kPa
407.19 K	0.0002731 kPa and 0.0002662 kPa
409.17 K	0.0003106 kPa and 0.0002981 kPa and 0.0003072 kPa
411.15 K	0.0003968 kPa and 0.0003833 kPa
413.19 K	0.0004758 kPa and 0.0004828 kPa and 0.0004614 kPa
415.15 K	0.0005574 kPa and 0.0005463 kPa
417.17 K	0.000649 kPa and 0.0006492 kPa
419.18 K	0.0007769 kPa and 0.0008205 kPa
421.2 K	0.0009516 kPa and 0.0009609 kPa

Settings	molar enthalpy [kJ/mol]
[2]	130

O=C(O)C1c2ccccc2Oc2ccccc21 [9H-xanthene-9-carboxylic acid]
[1]
Settings	vapor or sublimation pressure
383.08 K	0.000119 kPa and 0.0001121 kPa and 0.0001132 kPa
385.15 K	0.0001477 kPa and 0.0001432 kPa and 0.0001353 kPa
387.25 K	0.0001726 kPa and 0.0001686 kPa and 0.0001619 kPa
389.12 K	0.0002124 kPa and 0.0002049 kPa and 0.0002165 kPa
391.13 K	0.0002584 kPa and 0.0002449 kPa
393.14 K	0.0003154 kPa and 0.0003062 kPa
395.13 K	0.0003811 kPa and 0.0003776 kPa and 0.0003653 kPa
397.11 K	0.0004814 kPa and 0.0004632 kPa
399.14 K	0.0005597 kPa and 0.0005447 kPa and 0.0005518 kPa
401.13 K	0.0006834 kPa and 0.0006937 kPa and 0.0006737 kPa
403.12 K	0.0008362 kPa and 0.0008293 kPa and 0.0007816 kPa
405.15 K	0.0009639 kPa and 0.0009409 kPa

Settings	molar enthalpy [kJ/mol]
[2]	126

Reference: the NIST ThermoML archive (doi:10.1016/j.jct.2012.03.017)
